Laboratory results reported in PubChem BioAssay (NCI).
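A five-concentration, 48-hour dose response in 96-well plates underlies each endpoint, interpolated linearly between surrounding concentrations. GI50 = concentration required for 50% inhibition of growth. Definition used: TGI = concentration required for complete inhibition of growth.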

Key:
Assay in all cases: DTP human tumour cell line panel, 48 h
[1] = test system: HOP-62 NSCLC
[2] = test system: HCT-116 colon
[3] = test system: A498 renal
[4] = test system: NCI/ADR-RES ovarian
[5] = test system: NCI-H460 lung
[6] = test system: NCI-H522 lung
[7] = test system: MOLT-4 leukemia
[8] = test system: U251 CNS
[9] = test system: HL-60(TB) leukemia
[10] = test system: MDA-MB-435
[11] = test system: HT29 colon
[12] = test system: SNB-75 CNS
[13] = test system: OVCAR-4 ovarian
[14] = test system: DU-145 prostate
[15] = test system: IGROV1 ovarian
[16] = test system: K-562 leukemia
[17] = test system: 786-0 renal
[18] = test system: MALME-3M melanoma
[19] = test system: T-47D breast
[20] = test system: NCI-H226 lung
[21] = test system: M14 melanoma
[22] = test system: SF-295 CNS
[23] = test system: SN12C renal
[24] = test system: SK-MEL-5 melanoma
[25] = test system: KM12 colon
[26] = test system: SNB-19 CNS
[27] = test system: UO-31 renal
[28] = test system: CCRF-CEM leukemia
[29] = test system: OVCAR-8 ovarian
[30] = test system: OVCAR-5 ovarian
[31] = test system: MDA-MB-468 breast
[32] = test system: HCC-2998 colon
[33] = test system: ACHN renal
[34] = test system: HCT-15 colon
[35] = test system: HS 578T breast
[36] = test system: NCI-H23 lung
[37] = test system: RXF 393 renal
[38] = test system: UACC-62 melanoma
[39] = test system: A549 NSCLC
[40] = test system: MCF7 breast
[41] = test system: COLO 205 colon
[42] = test system: MDA-MB-231 breast
[43] = test system: PC-3 prostate
[44] = test system: RPMI-8226 leukemia
[45] = test system: SK-MEL-28 melanoma
[46] = test system: CAKI-1 renal
[47] = test system: SK-OV-3 ovarian
[48] = test system: SF-539 CNS
[49] = test system: SR leukemia
[50] = test system: SF-268 CNS
[51] = test system: UACC-257 melanoma
[52] = test system: BT-549 breast
[53] = test system: TK-10 renal
[54] = test system: OVCAR-3 ovarian
[55] = test system: EKVX NSCLC
[56] = test system: SK-MEL-2 melanoma
[57] = test system: LOX IMVI melanoma
[58] = test system: HOP-92 NSCLC
[59] = test system: SW-620 colon

## C#C[C@]1(O)CC[C@H]2[C@@H]3CC=C4c5sc(Nc6ccc(C(F)(F)F)cn6)nc5CC[C@]4(C)[C@H]3CC[C@@]21C
[1]
  GI50: 2.32 µM
  TGI: 11.3 µM
[2]
  GI50: 3.22 µM
  TGI: 13.7 µM
[3]
  GI50: 2.43 µM
  TGI: 5.45 µM
[4]
  GI50: 3.76 µM
  TGI: 46 µM
[5]
  GI50: 2.86 µM
  TGI: 10.6 µM
[6]
  GI50: 3.97 µM
  TGI: 16.2 µM
[7]
  GI50: 2.62 µM
  TGI: 13.7 µM
[8]
  GI50: 1.72 µM
  TGI: 11.3 µM
[9]
  GI50: 2.67 µM
  TGI: 7.65 µM
[10]
  GI50: 3.04 µM
  TGI: 11.9 µM
[11]
  GI50: 3.85 µM
  TGI: 30.5 µM
[12]
  GI50: 1.27 µM
  TGI: 12.7 µM
[13]
  GI50: 3.65 µM
  TGI: 31 µM
[14]
  GI50: 4.6 µM
  TGI: 22.5 µM
[15]
  GI50: 4.16 µM
  TGI: 21 µM
[16]
  GI50: 2.73 µM
  TGI: > 100 µM
[17]
  GI50: 1.47 µM
  TGI: 3.45 µM
[18]
  GI50: 2.89 µM
  TGI: 14.1 µM
[19]
  GI50: 3.58 µM
  TGI: 18.4 µM
[20]
  GI50: 3.91 µM
  TGI: 19.9 µM
[21]
  GI50: 2.57 µM
  TGI: 9.92 µM
[22]
  GI50: 0.565 µM
  TGI: 2.07 µM
[23]
  GI50: 4.77 µM
  TGI: 19.2 µM
[24]
  GI50: 2.09 µM
  TGI: 4.8 µM
[25]
  GI50: 4.49 µM
  TGI: 18.4 µM
[26]
  GI50: 2.9 µM
  TGI: 12.2 µM
[27]
  GI50: 3.09 µM
  TGI: 13.7 µM
[28]
  GI50: 2.76 µM
  TGI: > 100 µM
[29]
  GI50: 9.96 µM
  TGI: > 100 µM
[30]
  GI50: 4.48 µM
  TGI: 23.8 µM
[31]
  GI50: 3.16 µM
  TGI: 18.9 µM
[32]
  GI50: 4.82 µM
  TGI: 18.3 µM
[33]
  GI50: 3.34 µM
  TGI: 24.2 µM
[34]
  GI50: 1.72 µM
  TGI: 4.96 µM
[35]
  GI50: 1.45 µM
  TGI: 5.27 µM
[36]
  GI50: 3.08 µM
  TGI: 15.5 µM
[37]
  GI50: 0.723 µM
  TGI: 2.54 µM
[38]
  GI50: 1.95 µM
  TGI: 4.5 µM
[39]
  GI50: 6.95 µM
  TGI: > 100 µM
[40]
  GI50: 1.96 µM
  TGI: 4.49 µM
[41]
  GI50: 2.75 µM
  TGI: 13.8 µM
[42]
  GI50: 1.88 µM
  TGI: 4.44 µM
[43]
  GI50: 1.98 µM
  TGI: > 100 µM
[44]
  GI50: 0.564 µM
  TGI: > 100 µM
[45]
  GI50: 1.39 µM
  TGI: 2.93 µM
[46]
  GI50: 1.92 µM
  TGI: 5.62 µM
[47]
  GI50: 2.83 µM
  TGI: 26.7 µM
[48]
  GI50: 0.89 µM
  TGI: 2.66 µM
[49]
  GI50: 2.47 µM
  TGI: 20.4 µM
[50]
  GI50: 4.04 µM
  TGI: 32.6 µM
[51]
  GI50: 3.85 µM
  TGI: 18.4 µM
[52]
  GI50: 2.54 µM
  TGI: 8.13 µM
[53]
  GI50: 6.83 µM
  TGI: 91.2 µM
[54]
  GI50: 4.68 µM
  TGI: 35.1 µM
[55]
  GI50: 2.15 µM
  TGI: 8.58 µM
[56]
  GI50: 2.91 µM
  TGI: 10.6 µM
[57]
  GI50: 1.84 µM
  TGI: 4.25 µM
[58]
  GI50: 5.41 µM
  TGI: 26.1 µM
[59]
  GI50: 2.04 µM
  TGI: 5.03 µM
